Values quoted from earlier work as cited in patent US8097707B2, “Compositions and processes for preparing 13-deoxy-anthracyclines” (priority 2004, dated 2012).

Settings: test systems where doxorubicin is not metabolized appreciably to the 13-dihydro alcohol metabolite (doxorubicinol)

COc1cccc2c1C(=O)c1c(O)c3c(c(O)c1C2=O)C[C@@](O)(C(=O)CO)C[C@@H]3O[C@H]1C[C@H](N)[C@H](O)[C@H](C)O1 [doxorubicin]
cardiotoxic effects: no significant cardiotoxic effects
